For 13 compounds, IC50 results are on record in PMC8788354 (Journal of Enzyme Inhibition and Medicinal Chemistry, 2022).

Like-named read-outs stand apart in the source and are kept apart here. Numbered stars: 1 amine (or outer) side, 2 acyl side, 3 side chain; on linkers, the order of the positions; unused ones are H or OH. Bridge positions count the residues as written; N and C are the ends. Square brackets hold non-standard residues; d marks the D form. Peptide text beside a SMILES is read from it. I, II: the chains in the order shown. Actinocin(9to1) = Cc1c2oc3c(C)ccc(C(=O)[*:1])c3nc-2c(C(=O)[*:2])c(N)c1=O; NMeV = CN[C@H](C(=O)O)C(C)C; Sar = CNCC(=O)O

The test system of series [1] is SKBR-3 (human breast cancer cell line). In words: cells. The following applies: Homo sapiens, SRB assay, 72 h exposure, read-out: Anticancer activity IC50 (nM) ± SD, SKBR-3. The class given is cell-based.
For series [2], the system named is SKOV-3 (ovarian cancer cell line). In words: cells. The class given is cell-based, human. As to conditions: Homo sapiens, SK-OV-3; SRB assay, 72 h exposure; read-out: Anticancer activity IC50 (nM) ± SD, SKOV-3. Background: Sulforhodamine B stains cellular protein and so reports cell mass.
In series [3] the test system is U-87MG cells (glioblastoma cell line). In words: cells. As to conditions: Homo sapiens, U-87 MG; SRB assay, 72 h exposure; read-out: Anticancer activity IC50 (nM) ± SD, U-87. The series is classed as cell-based, human.
In series [4] the test system is PC-3 (human prostate cancer cell line). In words: cells. As to conditions: Homo sapiens; SRB assay, 72 h exposure; read-out: Anticancer activity IC50 (nM) ± SD, PC-3. The class given is cell-based.
The nature of series [5]: in vitro. The following applies: human, Toxicity IC50 (nM) ± SD, HDF, healthy cell line HDF, SRB assay, 72 h exposure.

One may read the IC50 as the midpoint of a concentration-inhibition curve. As for `COc1cc2c(c(OC)c1OC)-c1ccc(=O)c(OCc3ccc(/C=C/c4ccc(CNC5=C6C[C@@H](C)C[C@H](OC)[C@H](O)[C@@H](C)/C=C(\C)[C@H](OC(N)=O)[C@@H](OC)/C=C\C=C(/C)C(=O)NC(=CC5=O)C6=O)cc4)cc3)cc1[C@@H](NC(C)=O)CC2` [Compound 7d], the IC50 in series [1] (SK-BR-3, 72 h) was determined as 7.22 ± 0.19 nM; in series [2], 7.04 ± 0.15 nM; in series [3], 7.06 ± 0.44 nM; in series [4], 7.49 ± 0.32 nM; in series [5] it was 9.04 ± 0.29 nM.
The like results for `C=CCOc1ccc2c(cc1=O)[C@@H](NC(C)=O)CCc1cc(OC)c(OC)c(OC)c1-2` [Compound 4d] were, in that order, 1.73 ± 0.11 nM, 1.73 ± 0.07 nM, 1.78 ± 0.03 nM, 1.71 ± 0.03 nM and 2.39 ± 0.17 nM.
The matching figures for `COc1cc2c(c(OC)c1OC)-c1ccc(=O)c(OC/C=C/c3ccccc3)cc1[C@@H](NC(C)=O)CC2` [Compound 3c]: 3.09 ± 0.02 nM, 3.74 ± 0.18 nM, 3.38 ± 0.05 nM, 3.11 ± 0.91 nM and 5.24 ± 0.26 nM.
For the compound `COc1cc2c(c(OC)c1OC)-c1ccc(=O)c(OCc3ccc(I)cc3)cc1[C@@H](NC(C)=O)CC2` [Compound 3b], the IC50 was 2.55 ± 0.12 nM in series [1] (SK-BR-3, 72 h); 2.13 ± 0.4 nM in series [2]; 2.47 ± 0.91 nM in series [3]; 2.94 ± 0.08 nM in series [4]; 3.94 ± 0.27 nM in series [5].
The like results for `COc1cc2c(c(OC)c1OC)-c1ccc(=O)c(OCCCN=[N+]=[N-])cc1[C@@H](NC(C)=O)CC2` [Compound 3i] were, in that order, 1.32 ± 0.05 nM, 1.05 ± 0.02 nM, 1.88 ± 0.05 nM, 1.43 ± 0.02 nM and 2.85 ± 0.13 nM.
For `COc1cc2c(c(OC)c1OC)-c1ccc(OCc3ccc(/C=C/c4ccc(CNC5=C6C[C@@H](C)C[C@H](OC)[C@H](O)[C@@H](C)/C=C(\C)[C@H](OC(N)=O)[C@@H](OC)/C=C\C=C(/C)C(=O)NC(=CC5=O)C6=O)cc4)cc3)c(=O)cc1[C@@H](NC(C)=O)CC2` [Compound 8d], the IC50 stood at 11.4 ± 0.15 nM in series [1] (SK-BR-3, 72 h); 10.52 ± 0.05 nM in series [2]; 10.8 ± 0.74 nM in series [3]; 11 ± 0.44 nM in series [4]; 17.9 ± 1.04 nM in series [5].
In the case of `COc1cc2c(c(OC)c1OC)-c1ccc(OCc3ccc(/C=C/c4ccc5ccccc5c4)cc3)c(=O)cc1[C@@H](NC(C)=O)CC2` [Compound 8a], the IC50 in series [1] (SK-BR-3, 72 h) is 6.3 ± 0.09 nM; in series [2], 6.49 ± 0.25 nM; in series [3], 6.44 ± 0.07 nM; in series [4], 6.03 ± 0.26 nM; in series [5] it was 8.72 ± 0.48 nM.
In the case of `C=Cc1ccc(COc2cc3c(ccc2=O)-c2c(cc(OC)c(OC)c2OC)CC[C@@H]3NC(C)=O)cc1` [Compound 3j], the IC50 amounted to 4.19 ± 0.62 nM in series [1] (SK-BR-3, 72 h); 4.55 ± 0.07 nM in series [2]; 4.55 ± 0.06 nM in series [3]; 4.59 ± 0.03 nM in series [4]; 5.38 ± 0.42 nM in series [5].
The like results for `COc1cc2c(c(OC)c1OC)-c1ccc(=O)c(OCc3cn(Cc4ccc([N+](=O)[O-])cc4)nn3)cc1[C@@H](NC(C)=O)CC2` [Compound 5c] were, in that order, 2.18 ± 0.02 nM, 2.94 ± 0.71 nM, 2.04 ± 0.08 nM, 2.09 ± 0.33 nM and 3.12 ± 0.41 nM.
Take `COc1cc2c(c(OC)c1OC)-c1ccc(=O)c(OCc3cn(C4CC(n5cc(C)c(=O)[nH]c5=O)OC4CO)nn3)cc1C(NC(C)=O)CC2` (centres unmarked) [Compound 5e]: the IC50 in series [1] (SK-BR-3, 72 h) was determined as 3.71 ± 0.05 nM; in series [2], 3.74 ± 0.03 nM; in series [3], 3.05 ± 0.01 nM; in series [4] it was 3.51 ± 0.09 nM; in series [5], 6.22 ± 0.32 nM.
Turning to `Cc1c2oc3c(C)ccc(C(=O)N[C@@H]4C(=O)N[C@H](C(C)C)C(=O)N5CCC[C@H]5C(=O)N(C)CC(=O)N(C)[C@@H](C(C)C)C(=O)O[C@@H]4C)c3nc-2c(C(=O)N[C@@H]2C(=O)N[C@H](C(C)C)C(=O)N3CCC[C@H]3C(=O)N(C)CC(=O)N(C)[C@@H](C(C)C)C(=O)O[C@@H]2C)c(N)c1=O` [ActD, actinomycin D, reference compound] (I: T[dV]P[Sar][NMeV] / II: T[dV]P[Sar][NMeV]; ester I:1-I:C, II:1-II:C; linker I:N-II:N via Actinocin(9to1)), the results for the IC50 in series [1] (SK-BR-3) and in series [3] were 1140 ± 60 nM and 1610 ± 90 nM, respectively.
Consider `COc1cc2c(c(OC)c1OC)-c1ccc(OCc3ccccc3)c(=O)cc1[C@@H](NC(C)=O)CC2` [Compound 4a], for which the IC50 in series [1] (SK-BR-3, 72 h) stood at 2.01 ± 0.02 nM; in series [2], 1.63 ± 0.03 nM; in series [3], 2.08 ± 0.01 nM; in series [4], 2.26 ± 0.01 nM; in series [5], 4.12 ± 0.06 nM.
On to `CO[C@@]12[C@H](COC(N)=O)C3=C(C(=O)C(C)=C(N)C3=O)N1C[C@@H]1N[C@@H]12` [MitC, mitomycin C, reference compound], for which the IC50 in series [1] (SK-BR-3) was found to be 670 ± 10 nM; in series [3], 650 ± 40 nM.
